Results on twelve compounds are retold here after US9499550B2 (BRISTOL-MYERS SQUIBB COMPANY, priority 2012, dated 2016).

Assay [1] deals with HCV genotype 1a (H77 strain) replicon in HUH-7 cells. The assay is described as follows: HCV replicon luciferase reporter assay, genotype 1a. It is filed as cell-based. To be noted: Hepatitis C virus, Huh-7, 72 h, HCV genotype 1a replicon luciferase assay, 3 days incubation, range class, read-out: LE_1a (EC50, range). In outline:
(§1)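 Replicon inhibition for both genotypes was measured as Renilla luciferase signal (EnduRen, 7.5 μM final, 2 h) after 3-day, 37° C exposure of replicon-bearing HUH-7 cells in 4% FCS DMEM, 0.5% DMSO. The 1b construct carries S1179I; the 1a H77 construct carries P1496L and S2204I. Twenty-point, 3-fold dilutions were fitted four-parametrically for EC50, and CC50 was taken from multiplexed Cell Titer-Blue.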

Assay [2] has as its system HCV genotype 1b (Con1) replicon in HUH-7 cells. The assay is described as follows: HCV replicon luciferase reporter assay, genotype 1b. The assay is classed as cell-based. Conditions: Hepatitis C virus, Huh-7, 72 h, HCV genotype 1b replicon luciferase assay, 3 days incubation, range class, read-out: LE_1b (EC50, range). The gist of the method: as §1

Structures are written as SMILES.

As to `COc1cnc(O[C@@H]2C[C@H]3C(=O)N[C@]4(C(=O)NS(=O)(=O)C5(CF)CC5)C[C@H]4/C=C\CC[C@@H](C)C[C@@H](C)[C@H](NC(=O)OC4(C(C)C)COC4)C(=O)N3C2)c2ccccc12` [Compound 1054, 3-isopropyloxetan-3-yl ((2R,6S,7R,9R,13aS,14aR,16aS,Z)-14a-(((1-(fluoromethyl)cyclopropyl)sulfonyl)carbamoyl)-2-((4-methoxyisoquinolin-1-yl)oxy)-7,9-dimethyl-5,16-dioxo-1,2,3,5,6,7,8,9,10,11,13a,14,14a,15,16,16a-hexadecahydrocyclopropa[e]pyrrolo[1,2-a][1,4]diazacyclopentadecin-6-yl)carbamate], the EC50 in assay [1] and in assay [2] was below 5.46 nM each time.
As for `COc1cnc(O[C@@H]2C[C@H]3C(=O)N[C@]4(C(=O)NS(=O)(=O)C5(CF)CC5)C[C@H]4/C=C\CC[C@H](C)C[C@@H](C)[C@H](NC(=O)OC4(C)CCCOC4)C(=O)N3C2)c2ccccc12` (stereo partly drawn) [Compound 1055, 3-methyltetrahydro-2H-pyran-3-yl((2R,6S,7R,9S,13aS,14aR,16aS,Z)-14a-(((1-(fluoromethyl)cyclopropyl)sulfonyl)carbamoyl)-2-((4-methoxyisoquinolin-1-yl)oxy)-7,9-dimethyl-5,16-dioxo-1,2,3,5,6,7,8,9,10,11,13a,14,14a,15,16,16a-hexadecahydrocyclopropa[e]pyrrolo[1,2-a][1,4]diazacyclopentadecin-6-yl)carbamate], the EC50 in assay [1] and in assay [2] was below 5.46 nM each time.
Take `COc1cnc(O[C@@H]2C[C@H]3C(=O)N[C@]4(C(=O)NS(=O)(=O)C5(CF)CC5)C[C@H]4/C=C\CC[C@@H](C)C[C@@H](C)[C@H](NC(=O)OC4(C)CCCOC4)C(=O)N3C2)c2ccccc12` (stereo partly drawn) [Compound 1056, 3-methyltetrahydro-2H-pyran-3-yl((2R,6S,7R,9R,13aS,14aR,16aS,Z)-14a-(((1-(fluoromethyl)cyclopropyl)sulfonyl)carbamoyl)-2-((4-methoxyisoquinolin-1-yl)oxy)-7,9-dimethyl-5,16-dioxo-1,2,3,5,6,7,8,9,10,11,13a,14,14a,15,16,16a-hexadecahydrocyclopropa[e]pyrrolo[1,2-a][1,4]diazacyclopentadecin-6-yl)carbamate]: the 50% effective concentration (EC50) in assay [1] and in assay [2] was below 5.46 nM throughout.
`COc1cnc(O[C@@H]2C[C@H]3C(=O)N[C@]4(C(=O)NS(=O)(=O)C5(CF)CC5)C[C@H]4/C=C\CC[C@H](C)C[C@@H](C)[C@H](NC(=O)OC4(C(F)(F)F)CCCOC4)C(=O)N3C2)c2ccccc12` (stereo partly drawn) [Compound 1057, 3-(trifluoromethyl)tetrahydro-2H-pyran-3-yl((2R,6S,7R,9S,13aS,14aR,16aS,Z)-14a-(((1-(fluoromethyl)cyclopropyl)sulfonyl)carbamoyl)-2-((4-methoxyisoquinolin-1-yl)oxy)-7,9-dimethyl-5,16-dioxo-1,2,3,5,6,7,8,9,10,11,13a,14,14a,15,16,16a-hexadecahydrocyclopropa[e]pyrrolo[1,2-a][1,4]diazacyclopentadecin-6-yl)carbamate]: the EC50 in assay [1] and in assay [2] was below 5.46 nM in each case.
On to `COc1cnc(O[C@@H]2C[C@H]3C(=O)N[C@]4(C(=O)NS(=O)(=O)C5(CF)CC5)C[C@H]4/C=C\CC[C@@H](C)C[C@@H](C)[C@H](NC(=O)OC4(C(F)(F)F)CCCOC4)C(=O)N3C2)c2ccccc12` (stereo partly drawn) [Compound 1058, 3-(trifluoromethyl)tetrahydro-2H-pyran-3-yl((2R,6S,7R,9R,13aS,14aR,16aS,Z)-14a-(((1-(fluoromethyl)cyclopropyl)sulfonyl)carbamoyl)-2-((4-methoxyisoquinolin-1-yl)oxy)-7,9-dimethyl-5,16-dioxo-1,2,3,5,6,7,8,9,10,11,13a,14,14a,15,16,16a-hexadecahydrocyclopropa[e]pyrrolo[1,2-a][1,4]diazacyclopentadecin-6-yl)carbamate], for which the EC50 in assay [1] and in assay [2] was below 5.46 nM each time.
For the compound `COc1cnc(O[C@@H]2C[C@H]3C(=O)N[C@]4(C(=O)NS(=O)(=O)C5(CF)CC5)C[C@H]4/C=C\CC[C@H](C)C[C@@H](C)[C@H](NC(=O)OC4(C5CC5)COC4)C(=O)N3C2)c2ccccc12` [Compound 1059, 3-cyclopropyloxetan-3-yl((2R,6S,7R,9S,13aS,14aR,16aS,Z)-14a-(((1-(fluoromethyl)cyclopropyl)sulfonyl)carbamoyl)-2-((4-methoxyisoquinolin-1-yl)oxy)-7,9-dimethyl-5,16-dioxo-1,2,3,5,6,7,8,9,10,11,13a,14,14a,15,16,16a-hexadecahydrocyclopropa[e]pyrrolo[1,2-a][1,4]diazacyclopentadecin-6-yl)carbamate], the concentration giving a half-maximal response (EC50) in assay [1] and in assay [2] was 4.82 to 103 nM in each case.
Take `COc1cnc(O[C@@H]2C[C@H]3C(=O)N[C@]4(C(=O)NS(=O)(=O)C5(CF)CC5)C[C@H]4/C=C\CC[C@@H](C)C[C@@H](C)[C@H](NC(=O)OC4(C5CC5)COC4)C(=O)N3C2)c2ccccc12` [Compound 1060, 3-cyclopropyloxetan-3-yl((2R,6S,7R,9R,13aS,14aR,16aS,Z)-14a-(((1-(fluoromethyl)cyclopropyl)sulfonyl)carbamoyl)-2-((4-methoxyisoquinolin-1-yl)oxy)-7,9-dimethyl-5,16-dioxo-1,2,3,5,6,7,8,9,10,11,13a,14,14a,15,16,16a-hexadecahydrocyclopropa[e]pyrrolo[1,2-a][1,4]diazacyclopentadecin-6-yl)carbamate]: the EC50 in assay [1] and in assay [2] was below 5.46 nM throughout.
For the compound `COc1cnc(O[C@@H]2C[C@H]3C(=O)N[C@]4(C(=O)NS(=O)(=O)C5(CF)CC5)C[C@H]4/C=C\CC[C@H](C)C[C@@H](C)[C@H](NC(=O)OC(C)(C)CC(F)(F)F)C(=O)N3C2)c2ccccc12` [Compound 1061, 4,4,4-trifluoro-2-methylbutan-2-yl((2R,6S,7R,9S,13aS,14aR,16aS,Z)-14a-(((1-(fluoromethyl)cyclopropyl)sulfonyl)carbamoyl)-2-((4-methoxyisoquinolin-1-yl)oxy)-7,9-dimethyl-5,16-dioxo-1,2,3,5,6,7,8,9,10,11,13a,14,14a,15,16,16a-hexadecahydrocyclopropa[e]pyrrolo[1,2-a][1,4]diazacyclopentadecin-6-yl)carbamate], the EC50 in assay [1] and in assay [2] was 4.82 to 103 nM in each case.
For `COc1cnc(O[C@@H]2C[C@H]3C(=O)N[C@]4(C(=O)NS(=O)(=O)C5(CF)CC5)C[C@H]4/C=C\CC[C@@H](C)C[C@@H](C)[C@H](NC(=O)OC(C)(C)CC(F)(F)F)C(=O)N3C2)c2ccccc12` [Compound 1062, 4,4,4-trifluoro-2-methylbutan-2-yl((2R,6S,7R,9R,13aS,14aR,16aS,Z)-14a-(((1-(fluoromethyl)cyclopropyl)sulfonyl)carbamoyl)-2-((4-methoxyisoquinolin-1-yl)oxy)-7,9-dimethyl-5,16-dioxo-1,2,3,5,6,7,8,9,10,11,13a,14,14a,15,16,16a-hexadecahydrocyclopropa[e]pyrrolo[1,2-a][1,4]diazacyclopentadecin-6-yl)carbamate], the EC50 in assay [1] and in assay [2] was below 5.46 nM each time.
On to `COc1cnc(O[C@@H]2C[C@H]3C(=O)N[C@]4(C(=O)NS(=O)(=O)C5(CF)CC5)C[C@H]4/C=C\CC[C@H](C)C[C@@H](C)[C@H](NC(=O)OC4(C)CCOC4)C(=O)N3C2)c2ccccc12` (stereo partly drawn) [Compound 1063, 3-methyltetrahydrofuran-3-yl ((2R,6S,7R,9S,13aS,14aR,16aS,Z)-14a-(((1-(fluoromethyl)cyclopropyl)sulfonyl)carbamoyl)-2-((4-methoxyisoquinolin-1-yl)oxy)-7,9-dimethyl-5,16-dioxo-1,2,3,5,6,7,8,9,10,11,13a,14,14a,15,16,16a-hexadecahydrocyclopropa[e]pyrrolo[1,2-a][1,4]diazacyclopentadecin-6-yl)carbamate], for which the EC50 in assay [1] is 4.82 to 103 nM; in assay [2] it was below 5.46 nM.
The like results for `COc1cnc(O[C@@H]2C[C@H]3C(=O)N[C@]4(C(=O)NS(=O)(=O)C5(CF)CC5)C[C@H]4/C=C\CC[C@@H](C)C[C@@H](C)[C@H](NC(=O)OC4(C)CCOC4)C(=O)N3C2)c2ccccc12` (stereo partly drawn) [Compound 1064, 3-methyltetrahydrofuran-3-yl ((2R,6S,7R,9R,13aS,14aR,16aS,Z)-14a-(((1-(fluoromethyl)cyclopropyl)sulfonyl)carbamoyl)-2-((4-methoxyisoquinolin-1-yl)oxy)-7,9-dimethyl-5,16-dioxo-1,2,3,5,6,7,8,9,10,11,13a,14,14a,15,16,16a-hexadecahydrocyclopropa[e]pyrrolo[1,2-a][1,4]diazacyclopentadecin-6-yl)carbamate] were, in that order, below 5.46 nM and below 5.46 nM.
The like results for `COc1cnc(O[C@@H]2C[C@H]3C(=O)N[C@]4(C(=O)NS(=O)(=O)C5(CF)CC5)C[C@H]4/C=C\CC[C@H](C)C[C@@H](C)[C@H](NC(=O)OC4(C(F)(F)F)CCOC4)C(=O)N3C2)c2ccccc12` (stereo partly drawn) [Compound 1065, 3-(trifluoromethyl)tetrahydrofuran-3-yl((2R,6S,7R,9S,13aS,14aR,16aS,Z)-14a-(((1-(fluoromethyl)cyclopropyl)sulfonyl)carbamoyl)-2-((4-methoxyisoquinolin-1-yl)oxy)-7,9-dimethyl-5,16-dioxo-1,2,3,5,6,7,8,9,10,11,13a,14,14a,15,16,16a-hexadecahydrocyclopropa[e]pyrrolo[1,2-a][1,4]diazacyclopentadecin-6-yl)carbamate] were, in that order, 4.82 to 103 nM and below 5.46 nM.
